We go through 86 compounds from a melting point compilation (Tetko et al.; mined from patent text by program, amines drawn as free bases though some values may be those of a salt).

By melting point is commonly meant the temperature, or range, at which the solid turns liquid.

The compound `Cc1ccccc1C1(O)C=C(C(C)(C)C)C(=O)C(C(C)(C)C)=C1` showed a melting point of 168 to 171 °C.

Compound `CC(=NOCCOc1ccc(CC2SC(=O)NC2=O)cc1)c1ccc(O)cc1` (stereo unspecified) had a melting point of 157 to 159 °C.

As for `COc1ccc(-c2cccc(C(=O)O)c2)c2c1OC(C)(C)C2`, the melting point was 220 to 225 °C.

The compound `CC(=O)Nc1ccc(S(=O)(=O)c2cc(Br)nc(Br)c2)cc1` showed a melting point of 211 °C.

For `CC(COc1ccc2c(c1)CC/C(=C\c1cccs1)C2=O)n1ccnc1` (stereo unspecified), the melting point was 160 to 162 °C.

As to `CC(C)N(C(=O)CC(C#N)(CCN1CCCCC1)c1ccccc1Cl)C(C)C` (stereo unspecified), the melting point was in the range of 83 to 85 °C.

The compound `O=C(O)Cc1ccc(Oc2ccc(C(F)(F)F)cn2)c(Cl)c1` yielded a melting point of 138 to 139 °C.

With `CCOC(=O)C(=Cc1ccc(F)cc1)C(C)=O`, the melting point lay in the range of 80 to 82 °C.

`CCOC(=O)c1cnc2c3c(ccc2c1Cl)C(=O)C(C(C)=O)C=N3` (stereo unspecified) showed a melting point of 288 to 290 °C.

For `O=[N+]([O-])c1cccnc1NCc1cccs1`, the melting point is 100 °C.

The compound `CCC1(c2ccccc2)CC(N2C(=O)c3ccccc3C2=O)C(=O)NC1=O` (stereo unspecified) showed a melting point of 174 to 177 °C.

`CCNC(=NC#N)NCc1cccnc1` returned a melting point of 177 to 179 °C.

Take `Nc1ccc(C2Oc3cc4c(cc3O2)CC2COC(=O)N2N=C4)cc1` (stereo unspecified): the melting point was 173 to 175 °C.

Take `Cc1nc[nH]c1CSCCNC(=NCCc1ccccc1)NC#N`: the melting point lay in the range of 135 to 136 °C.

`CCCCC(CCCc1cccnc1)CC(NS(=O)(=O)c1ccc(Cl)cc1)C(=O)O` (stereo unspecified) came in with a melting point of 113 to 114 °C.

Consider `CCC1(CC(=O)O)OCCc2nc(-c3ccccc3)sc21` (stereo unspecified), for which the melting point is 106 to 108 °C.

In turn, `CCCCCCCCCCCC(=O)OC[C@H]1OCC(=NOCc2ccccc2)[C@@H](O)[C@@H]1O` displayed a melting point of 45 to 50 °C.

With `CCCC(=O)Oc1ccc(S(=O)(=O)CS(N)(=O)=O)cc1`, the melting point lay within 160 to 161 °C.

On to `O=C(CN1CCCC1=O)N1CCC(C2c3ncc(Br)cc3CCc3cc(Cl)cc(Br)c32)CC1` (single isomer, unassigned; (+)), for which the melting point lay within 118 to 119 °C.

Take `CS(=O)CCN1C(=O)CN=C(c2ccccc2)c2cc(Cl)ccc21` (stereo unspecified): the melting point was 166 to 167 °C.

Consider `CCOC(=O)c1ccc(N2CCN(C)CC2)nn1`, for which the melting point turned out to be 106 °C.

The compound `CN1C(=O)CCc2c1ccc(Sc1cccc(C3(C)CC(O)CCO3)c1)c2F` (stereo unspecified) had a melting point of 141 to 142 °C.

Compound `Cc1cccc2c1COC(=O)N2` showed a melting point of 222 to 226 °C.

Consider `COc1cc2c(cc1N1CCN(CC3Cc4ccccc4C3)CC1)OCCO2`, for which the melting point fell in the range of 176 to 178 °C.

Compound `O=c1c2ccccc2oc2cc(O)ccc12` gave a melting point of 242 °C.

On to `Cc1nc(/C=C/c2cccc(Cl)c2F)no1`, for which the melting point lay within 95 to 98 °C.

Regarding `COc1ccc(-c2nnc(C(Cl)(Cl)Cl)o2)cc1OC`, the melting point lay within 171 to 173 °C.

In the case of `Nc1cccc(C(CC2=NCCN2)c2ccccn2)c1` (stereo unspecified), the melting point was in the range of 154 to 155 °C.

As to `Cn1c(=O)[nH]c2cc(CC(=O)O)ccc21`, the melting point is 220 °C.

`CC(C(=O)O)c1ccc(-c2ccc(F)cc2)c(F)c1` (stereo unspecified) registered a melting point of 118 to 119 °C.

For `CC(=O)NC(C)(C)c1ccc(CN2CCN(c3cccc(F)n3)CC2)cc1`, the melting point fell in the range of 133 to 134 °C.

As for `O=C(O)C(=O)c1ccc(OCCOc2ccc(C(F)(F)F)cc2)cc1`, the melting point lay within 121 to 123 °C.

The compound `CCOc1cc(O)cc2c1C(=O)N(CSc1ccccc1)S2(=O)=O` gave a melting point of 204 to 205 °C.

`N[C@@H]1CCN(c2ccc3c(NC(=O)CC4CCCCC4)c(Cl)ccc3n2)C1` had a melting point of 201 to 206 °C.

`O=CC(=Cc1ccc(O)cc1)C(C=O)=Cc1ccc(O)cc1` gave a melting point of 244 to 246 °C.

In the case of `CC(C)(C)OC(=O)N[C@@H](CC1CCCCC1)[C@@H]1C[C@@H](C2(O)CCCCC2)C(=O)O1`, the melting point lay in the range of 133 to 134 °C.

Regarding `OC(CCNCc1ccccc1)(COc1ccc(Cl)cc1)c1ccccc1` (stereo unspecified), the melting point was in the range of 70 to 71 °C.

As for `CCN(CC)S(=O)(=O)c1ccccc1S(N)(=O)=O`, the melting point fell in the range of 156 to 159 °C.

As to `O=C(NC1CC1)c1cn2c(NCCCCCCNS(=O)(=O)c3ccccc3[N+](=O)[O-])nsc2n1`, the melting point is 170 to 171 °C.

The compound `O=C(O)c1cn(C2CCCCC2)c2c(F)c(F)c(F)cc2c1=O` displayed a melting point of 261 to 264 °C.

For `CCCNc1nc(N)nc2c1ncn2C1CC(F)C(CO)O1` (stereo unspecified), the melting point worked out at 153 °C.

`NCC(=O)OCc1ccc([N+](=O)[O-])cc1` returned a melting point of 45 to 50 °C.

`COc1ccc(C(C)(C)C)cc1C=Cc1ccc(CCl)cc1`: the melting point lay in the range of 103 to 104 °C.

Take `Brc1ccc(C2(c3ccccc3)OCCO2)cc1`: the melting point was 54 to 56 °C.

On to `CCCCCCCCCCC(O)C[N+]1([O-])CCOCC1` (stereo unspecified), for which the melting point was in the range of 151 to 152 °C.

For `O=S(Cc1ccccn1)c1nc2cc3c(cc2[nH]1)CCC3` (stereo unspecified), the melting point fell in the range of 173 to 174 °C.

For the compound `CC1(C)CC(=O)Nc2c(CCCN3CCN(c4nsc5ccccc45)CC3)cccc21`, the melting point turned out to be 166 °C.

The compound `CC(C)(C)OC(=O)N1CCc2cc(NC(=O)NCc3ccc4c(c3)CN(C3CCC(=O)NC3=O)C4=O)ccc2C1` (stereo unspecified) showed a melting point of 230 to 232 °C.

On to `Cc1ccc(S(=O)(=O)N2[C@@H](CC(=N)NO)CC[C@H]2c2ccc(F)cc2)cc1` (racemic), for which the melting point amounted to 84 °C.

On to `CCOc1ccc(-n2c(-c3ccncc3)nc(SC)c(C#N)c2=O)cc1`, for which the melting point was 201 to 204 °C.

Take `O=c1[nH]c2c(I)c(Cl)c(Cl)c(I)c2[nH]c1=O`: the melting point fell in the range of 353 to 354 °C.

Compound `Cc1ccc(N2C(=O)C(O)=C(C(=O)c3ccc(C(C)C)cc3)C2c2ccc(-n3cncn3)cc2)nn1` (stereo unspecified) returned a melting point of 284 °C.

The compound `CC(C)C(=O)OC1c2nccnc2C(=O)N1c1ccc2ccc(Cl)nc2n1` (stereo unspecified) yielded a melting point of 260 to 262 °C.

`Cc1cc(Oc2ccc(S(C)(=O)=O)nc2)cc2cc(C3=NCC(CC(=O)N4CCS(=O)CC4)S3)[nH]c12` (stereo unspecified) showed a melting point of 157 to 160 °C.

The compound `CC(C)(C)C(=O)Nc1nc(CN2CCC(c3c[nH]c4ccccc34)CC2)cs1` registered a melting point of 93 to 96 °C.

For `CCc1nc2c(N)nc3cc(OCC(=O)N4CCOCC4)ccc3c2n1CC(C)C`, the melting point lay in the range of 219 to 220 °C.

For `CCCCc1ccc(C(=O)Nc2cc(CCCC)c(NC(=O)c3ccc(CCCC)cc3)c3c2C(=O)c2ccccc2C3=O)cc1`, the melting point lay in the range of 180 to 181 °C.

The compound `CCCCCCCCCCCCCCCCCC(O)C[N+](=O)[O-]` (stereo unspecified) displayed a melting point of 55 to 56 °C.

The compound `CCc1cnc(N2CCC(c3nc4cc(-c5ccc(S(C)(=O)=O)cc5F)ccc4o3)CC2)nc1` returned a melting point of 247 to 250 °C.

As for `CC(C)(C)OC(=O)N1CC(CO)c2c1cc([N+](=O)[O-])c1ccccc21` (stereo unspecified), the melting point was found to be 176 °C.

For the compound `COC(=O)c1ccc(Cn2nc(C(N)=O)c3ccccc32)cc1`, the melting point was in the range of 163 to 165 °C.

In the case of `NC(=O)c1cc2ccc(OCC(O)CCl)cc2o1` (stereo unspecified), the melting point was in the range of 109 to 110 °C.

Compound `C[C@@H]1c2ccccc2-c2ccc(Cl)cc2N1C(=O)c1ccc(O)cc1` displayed a melting point of 274 to 276 °C.

Regarding `CCOC(=O)c1c(SCc2ccc(OC)cc2)nc2c(F)c(F)c(F)cc2c1O`, the melting point fell in the range of 174 to 176 °C.

`COCCOCOc1c(C(C)(C)C)cc(-c2nc(N)n[nH]2)cc1C(C)(C)C` returned a melting point of 233 to 235 °C.

Regarding `COc1cc(OC)cc(C(=O)NC(=O)Nc2ccc3c(c2)NC(=O)/C3=C\c2[nH]c(C)c(C(=O)O)c2C)c1`, the melting point was above 300 °C.

Turning to `Cc1cc(N)c(C)c(/C=C/C(=O)O)c1`, the melting point worked out at 185 °C.

Take `O=C(O)C1=Cc2cc(-c3ccc(C(F)(F)F)cc3)ccc2OCC1`: the melting point lay within 273 to 276 °C.

The compound `CS(=O)(=O)Nc1ccc(Cc2n[nH]c3c2c(=O)n(-c2ccccc2)c2ncccc32)cc1` came in with a melting point of 306 to 307 °C.

`Nc1cccc(Cn2c(-c3ccc(Nc4cncnc4)cc3)ccc2-c2ccccc2Cl)n1` showed a melting point of 88 to 90 °C.

`Cc1oc(-c2ccccc2)nc1COc1cccc(COc2cncc(CO)c2)c1` registered a melting point of 145 to 146 °C.

In the case of `COc1ccccc1CCc1c(CO)ccc(OC)c1OC`, the melting point lay within 108 to 109 °C.

Compound `CC(C)[C@H](NC(=O)N(C)Cc1cccnc1)C(=O)N[C@@H](Cc1ccccc1)[C@H](O)[C@@H](O)[C@H](Cc1ccccc1)NC(=O)[C@@H](NC(=O)N(C)Cc1ccccn1)C(C)C` displayed a melting point of 92 to 94 °C.

`COc1cc(C(=O)C#CCOC(=O)c2cc(OC)c(OC)c(OC)c2)cc(OC)c1OC` came in with a melting point of 106 to 108 °C.

Compound `COc1ccc(-c2cc(Cl)on2)cc1` returned a melting point of 82 to 83 °C.

`CCOC(=O)c1ccc(F)cn1` registered a melting point of 61 to 63 °C.

In turn, `CSCC1=C(c2ccccc2)C(=O)N(C(C)(C)C(=O)O)CO1` returned a melting point of 136 to 137 °C.

As to `COP(=O)(Cc1nc2ccccc2nc1CP(=O)(OC)OC)OC`, the melting point lay in the range of 115 to 116 °C.

As for `O=CNc1cccc(C(=O)Nc2ccc(-c3ccccc3)cc2)c1O`, the melting point stood at 190 °C.

For the compound `O=C(NC(=O)c1c(F)cccc1F)Nc1ccc(C(O)(C(F)(F)F)C(F)(F)F)cc1`, the melting point fell in the range of 205 to 207 °C.

Compound `CC(=O)N1CCN(c2c([N+](=O)[O-])cc([N+](=O)[O-])cc2C(F)(F)F)CC1` registered a melting point of 126 °C.

As to `CC(C)(C)OC(=O)[C@@H](CCc1ccc([N+](=O)[O-])cc1)OS(=O)(=O)c1ccc([N+](=O)[O-])cc1`, the melting point lay within 97 to 98 °C.

As for `COc1cc2c(cc1Nc1ncc(Cl)c(NC3(C(=O)OC(C)C)CCCC3)n1)CCN(CC(=O)N(C)C)CC2`, the melting point lay in the range of 65 to 70 °C.

The compound `O=C1CSc2nc(Nc3ccc(N4CCOCC4)cc3)ncc2N1` gave a melting point of 288 to 290 °C.

For `CCOc1cc(CN2CCN(c3ccc(C(=O)NC)cc3)CC2)cc2c1OC(C)C(=O)N2` (stereo unspecified), the melting point was in the range of 228 to 233 °C.

Take `CCN(c1cccc2cc(-c3ncc(COc4ccc(C(=O)OC)cc4)s3)[nH]c12)S(=O)(=O)c1cccs1`: the melting point is 191 °C.
